86 compounds from ChEMBL document CHEMBL1157539, “Thousands of chemical starting points for antimalarial lead identification” (Nature, 2010) can be followed below.

This assay concerns Plasmodium falciparum. Description: GSK_TCMDC: Inhibition of Plasmodium falciparum 3D7 in whole erythrocytes, using parasite LDH activity as an index of growth. In kind it is functional, organism-based. To be noted: Plasmodium falciparum, 3D7.
`COc1ccc(Nc2nc(N/N=C/c3ccc(O)cc3)nc(Nc3ccc([N+](=O)[O-])cc3)n2)cc1`: the XC50 came to 1120 nM.

`O=[N+]([O-])c1ccc(Nc2nc(N/N=C/c3cc(Cl)cc(Cl)c3O)nc(Nc3ccccc3)n2)cc1` registered an XC50 of 671 nM.

Consider `CCN(CC)CCN(Cc1ccc(-c2ccc(C(F)(F)F)cc2)cc1)C(=O)Cn1c(CCc2cc(F)c(F)cc2F)nc(=O)c2ccccc21`, for which the XC50 worked out at 718 nM.

Take `CCN(CC)CCN(Cc1ccc(-c2ccc(C(F)(F)F)cc2)cc1)C(=O)Cn1c(CCc2ccc(F)c(F)c2F)nc(=O)c2cccnc21`: the XC50 was determined as 1130 nM.

The compound `CC(C)N1CCC(N(Cc2ccc(-c3ccc(Cl)cc3)cc2)C(=O)Cn2c(CCc3cccc(F)c3F)nc(=O)c3ccccc32)CC1` registered an XC50 of 944 nM.

For `COc1ccc(Nc2ncc3c(-c4cccc(NC(=O)Cc5ccc(O)cc5)c4)c[nH]c3n2)cc1OC`, the XC50 is 570 nM.

As for `COc1ccc(Cl)cc1N1CCN(CCCNC(=O)c2ccc(-c3nc4ccc(C(F)(F)F)cc4[nH]3)c(C)c2)CC1`, the XC50 was 762 nM.

As for `COc1ccc2c(CCNc3nc(SC)ncc3C(=O)NCCc3ccc(F)cc3)c[nH]c2c1`, the XC50 is 762 nM.

In the case of `CC(=O)c1sc(Cc2nc3ccccc3s2)nc1C`, the XC50 came out at 1070 nM.

In turn, `O=C(Nc1ccccc1)c1ccc(-c2cc3ccncc3cc2OC2CCNCC2)s1` registered an XC50 of 654 nM.

`COc1ccc(NC(=O)/C=C/c2ccccc2Cl)cc1OCCN1CCN(c2ccncc2)CC1` showed an XC50 of 728 nM.

Consider `Cc1cc(N)nc2cc(CNCCc3ccccc3Br)ccc12`, for which the XC50 amounted to 129 nM.

Regarding `CC1CN(CCCn2c3ccccc3c3ccc(C(=O)CCCN(C)C)cc32)CC(C)N1` (stereo unspecified), the XC50 was 809 nM.

For the compound `CC(=O)NC(c1cccs1)c1cc(Cl)c2cccnc2c1O` (stereo unspecified), the XC50 came out at 317 nM.

The compound `COc1cccc(NC(=O)NCCNc2ccnc(Nc3ccc(F)cc3)n2)c1` returned an XC50 of 917 nM.

On to `O=C(/C=C/c1cccc2c1OCO2)Nc1ccnc2ccncc12`, for which the XC50 stood at 895 nM.

With `Cc1cc(N2CCCC2)nc(Nc2ccc(NC(=O)c3ccccc3C)cc2)n1`, the XC50 was determined as 724 nM.

`CN1CCCN(Cc2cccc(-c3cccc(NC(=O)c4cccc(C#N)c4)c3)c2)CC1`: the XC50 was 818 nM.

`CO/C(=C\C=C\c1cc2cc(Cl)c(Cl)cc2[nH]1)C(=O)NCCCN(C)CCN(C)c1ccccc1` gave an XC50 of 828 nM.

Consider `CCOC(=O)c1c(NC(=O)c2ccccc2)sc2c(O)c(CN(CC)CC)ccc12`, for which the XC50 was found to be 969 nM.

`O=C(Nc1ccc(Cl)c(Cl)c1)N1CCC(CN2CCC(c3c[nH]c4ccccc34)CC2)CC1` yielded an XC50 of 295 nM.

As to `CC1CN(c2cnn(C/C=C/c3ccc(NC(=O)c4ccc(Cl)cc4)cc3)c(=O)c2Cl)CC(C)N1` (stereo unspecified), the XC50 turned out to be 853 nM.

Take `O=C(Cc1cccc(Cl)c1)Nc1cccc(-c2c[nH]c3nc(Nc4ccccc4)ncc23)c1`: the XC50 turned out to be 678 nM.

`O=c1cc(NCCCNCc2ccc(C(F)(F)F)c(F)c2)[nH]c2ccccc12` gave an XC50 of 1190 nM.

Regarding `Oc1ccc(-c2ccccc2)cc1CN1CCCCC1`, the XC50 was determined as 903 nM.

Consider `CN1CCC(N2CCN(Cc3ccc(-c4ccc(-c5nc6ccccc6[nH]5)s4)cc3)CC2)CC1`, for which the XC50 was 140 nM.

`O=C1C(c2ccccc2)=C(Nc2ccc([N+](=O)[O-])cc2)c2ccccc21` showed an XC50 of 871 nM.

For `Cc1onc(-c2ccc(Cl)cc2)c1-c1ccnn1S(=O)(=O)c1ccc(Cl)cc1`, the XC50 stood at 711 nM.

`CC(O)C1CCCCN1C(=O)c1ccc(-c2ccc(-c3nc4ccccc4[nH]3)s2)cc1` (stereo unspecified): the XC50 came out at 966 nM.

Consider `Fc1cc(Cl)ccc1Nc1ccnc(Nc2ccc3cn[nH]c3c2)n1`, for which the XC50 stood at 737 nM.

Consider `Fc1ccc2c(NN=Cc3ccccc3F)ccnc2c1`, for which the XC50 was determined as 562 nM.

The compound `COc1ccc2nccc([C@@H](O)CN3CCC(NCc4cc5cccnc5[nH]4)CC3)c2n1` had an XC50 of 956 nM.

As to `Cc1cc(N[C@@H](Cc2ccccc2)C(=O)Nc2ccccc2)nc(NCC2CCCCC2)n1`, the XC50 is 761 nM.

With `COc1ccc(CC2(c3ccc(F)cc3)N=C(N)N(CCCc3cccnc3)C2=O)cc1` (stereo unspecified), the XC50 came out at 668 nM.

In turn, `CCOc1ccc(-c2noc(-c3c[nH]c4ccccc4c3=O)n2)cc1` gave an XC50 of 205 nM.

Take `O=C(C=Cc1ccc(F)c(Br)c1)N1CCC(CN2CCC(c3c[nH]c4ccccc34)CC2)CC1`: the XC50 was 745 nM.

Turning to `Cc1cccc2nc(-c3ccc(-c4cccc(NC(=O)c5cnn6cccnc56)c4)cc3)[nH]c12`, the XC50 amounted to 872 nM.

`CCC(C)CN1CCN(c2cc(NC(=O)c3cccs3)ccn2)C(C)C1` (stereo unspecified) registered an XC50 of 997 nM.

`O=C(Nc1cc(Cl)cc(Cl)c1)c1cc(Cl)c(=O)n(Cc2ccc(Cl)cc2)c1` had an XC50 of 863 nM.

Consider `O=C(NC1CC1)c1ccc(N2CCC(c3ccccc3)CC2)nc1`, for which the XC50 worked out at 1110 nM.

`O=C(Nc1cccc(-c2ccc(-c3nc4cc(F)ccc4[nH]3)cc2)c1)c1ccoc1` displayed an XC50 of 962 nM.

The compound `c1ccc(CNCc2cccc(-c3ccc(-c4nc5ccccc5[nH]4)cc3)c2)cc1` returned an XC50 of 822 nM.

`Cc1ccccc1C1CCN(C2CCC(NC(=O)/C=C/c3ccc(F)c(F)c3)CC2)CC1` (stereo unspecified): the XC50 came to 945 nM.

Compound `O=C(NCCc1ccccc1)[C@H](Cc1ccccc1)Nc1ccnc(NCC2CCCCC2)n1` had an XC50 of 1380 nM.

`COc1ccc(Cc2c(C)nc3nc(N)nc(N)c3c2C)cc1OC` returned an XC50 of 912 nM.

Compound `CCOC(=O)c1ccc(N2CCN(c3cc(Cl)ccc3C)CC2)c(NC(=O)Nc2ccc(Cl)c(Cl)c2)c1` displayed an XC50 of 584 nM.

On to `Cc1cccc2nc(-c3ccc(-c4ccc(NC(=O)Nc5ccsc5)cc4)s3)[nH]c12`, for which the XC50 turned out to be 113 nM.

In turn, `Cc1sc(C)c(C(F)(F)F)c1CNCCCNc1cc(=O)c2ccccc2[nH]1` registered an XC50 of 1100 nM.

For `CCCCCCCCOc1ccc(N2C(N)=NC(N)=NC2(C)C)cc1`, the XC50 is 502 nM.

As to `NS(=O)(=O)c1cccc(Nc2nc(N[C@@H]3CCNC3)nc3cc[nH]c(=O)c23)c1`, the XC50 was found to be 940 nM.

The compound `c1ccc(Oc2ccc(Nc3nc(NCCc4c[nH]cn4)nc(NC4CCCC4)n3)cc2)cc1` came in with an XC50 of 1030 nM.

As to `OC(c1ccc2ccccc2c1)C1CN(CCc2ccccc2)CCC1(O)c1ccccc1` (stereo unspecified), the XC50 was found to be 554 nM.

As for `CCCCN(Cc1cnccc1-c1ccc(Br)cc1)c1ccc(C(O)(C(F)(F)F)C(F)(F)F)cc1`, the XC50 came out at 1060 nM.

As to `CCCNCc1ccc(-c2ccc(CN(Cc3cnc(C)cn3)C(=O)CC#N)cc2)nc1`, the XC50 stood at 1220 nM.

`N[C@@H](CCN1CCC(c2cccc(O)c2)CC1)Cc1ccc(F)c(F)c1` yielded an XC50 of 1110 nM.

Compound `O=C(Nc1cccc(-c2nn3ccccc3c2-c2ccnc(Nc3cccc(C(F)(F)F)c3)n2)c1)c1c(F)cccc1F` yielded an XC50 of 627 nM.

`OC(CNCc1cccc(Oc2ccc(Cl)cc2)c1)c1cc(C(F)(F)F)cc(C(F)(F)F)c1` (stereo unspecified) returned an XC50 of 255 nM.

In turn, `O=S(=O)(NCCN1CCCC1)c1cccc(-c2ccc(CNCc3ccsc3)cc2)c1` registered an XC50 of 804 nM.

For the compound `c1ccc2[nH]c(CN(Cc3nc4ccccc4[nH]3)Cc3nc4ccccc4[nH]3)nc2c1`, the XC50 turned out to be 668 nM.

`O=C1CCCN1CCCNCc1cccc(-c2cccc(-c3nc4cc(C(F)(F)F)ccc4[nH]3)c2)c1`: the XC50 stood at 299 nM.

Turning to `Cc1cc(N(C)CCCN2CCCCC2)nc(Nc2ccc(Cl)cc2)n1`, the XC50 came out at 188 nM.

Compound `c1cc2[nH]c(CCCc3nc4cc(C5=N[C@H]6CCCC[C@H]6N5)ccc4[nH]3)nc2cc1C1=N[C@@H]2CCCC[C@@H]2N1` had an XC50 of 1240 nM.

With `Cc1cc(N[C@@H](Cc2ccccc2)C(=O)NCc2cccc(F)c2)nc(NCc2ccccc2C)n1`, the XC50 turned out to be 981 nM.

In the case of `Cc1ccc(S(=O)(=O)Nc2ccc(Nc3nccc(Nc4cccc5[nH]ncc45)n3)cc2)cc1`, the XC50 worked out at 958 nM.

As for `CO/C(=C\C=C\c1cc2cc(Cl)c(Cl)cc2[nH]1)C(=O)NCCCN1CCN(c2cccc(CCO)c2)CC1`, the XC50 was 716 nM.

For the compound `NS(=O)(=O)c1cccc(-c2ccc3c(O)ncnc3c2)c1`, the XC50 is 946 nM.

`N#Cc1cccc(Nc2cc(C(F)(F)F)nc(Nc3ccccc3)n2)c1` came in with an XC50 of 1440 nM.

`Fc1ccc2c(NN=CC=Cc3ccccc3)ccnc2c1` gave an XC50 of 779 nM.

`CN1CCN(c2ccnc3ccc(NC(=O)Nc4ccc(-c5ccncc5)c(C(F)(F)F)c4)cc23)CC1` registered an XC50 of 823 nM.

As for `Cc1nnc2c(NC(=O)NC3CCCC3)cc3cc(-c4ccc(CN5CCCCC5)cc4)ccc3n12`, the XC50 came to 948 nM.

Take `O=C(NCCN1CCCC1)c1cccc(-c2ccc(-c3nc4cc(F)ccc4[nH]3)cc2)c1`: the XC50 amounted to 722 nM.

On to `O=C(/C=C/c1ccc(Cl)c(Cl)c1)NCCCCCCN1CCCN(C(=O)Nc2cccc(Cl)c2)CC1`, for which the XC50 was 855 nM.

Compound `O=C(Nc1cccc(-c2cccc(-c3nc4cc(F)ccc4[nH]3)c2)c1)c1csnn1` showed an XC50 of 788 nM.

`CC(C)Oc1ccc(C=CC(=O)Nc2noc3ccccc23)cc1` returned an XC50 of 288 nM.

Turning to `Cc1ccc(-n2cc(CNCCc3nc(C)c[nH]3)c(-c3ccc(F)cc3)n2)cc1`, the XC50 was determined as 1510 nM.

The compound `O=C(Nc1cccc(-c2cccc(-c3nc4cc(F)ccc4[nH]3)c2)c1)c1ccoc1` yielded an XC50 of 333 nM.

`Cc1ccc2c(c1)NCC21CCN(C[C@@H](O)C2CCN(c3cc(C#N)ccn3)CC2)CC1C` (stereo partly specified) yielded an XC50 of 606 nM.

On to `CN1CCN(Cc2ccc(-c3cc4nccc(Nc5ccc(Oc6ccccc6)cc5)c4cc3Cl)o2)CC1`, for which the XC50 stood at 979 nM.

In turn, `CC1CCCN(C(=O)c2cc(-c3ccccn3)nc3c(Cl)cccc23)C1` (stereo unspecified) displayed an XC50 of 1080 nM.

Regarding `CC1CCN(CC[C@H]2CCCN2S(=O)(=O)c2cccc(NC(=O)c3ccc(-c4ccc(Cl)cc4)o3)c2)CC1`, the XC50 was 693 nM.

Regarding `Fc1ccc(OC2CN(c3nccc(NCc4ccccc4Cl)n3)C2)cc1`, the XC50 was 898 nM.

In the case of `O=C(Nc1ccc(-n2ccc(C(F)(F)F)n2)cc1)c1cccs1`, the XC50 was 1070 nM.

`N#Cc1ccc2c(c1)CCN(CCC1CCC(NC(=O)/C=C/c3ccc(Cl)c(Cl)c3)CC1)CC2` (stereo unspecified) yielded an XC50 of 422 nM.

For `COc1cc2c(cc1OC)CN(CCCCNC(=O)c1ccc(NC(=O)c3cc(Cl)cc(Cl)c3)cc1)CC2`, the XC50 came to 778 nM.

In turn, `OC1CCCN(Cc2cccc(-c3ccc(-c4nc5cc(F)ccc5[nH]4)cc3)c2)C1` (stereo unspecified) had an XC50 of 780 nM.

As for `COc1ccccc1NC(=O)Nc1ccc(-c2cccc(-c3nc4ccccc4[nH]3)c2)cc1`, the XC50 worked out at 641 nM.
